Source: ChEMBL document CHEMBL5252541, “Repurposing antipsychotic drugs into antifungal agents: Synergistic combinations of azoles and bromperidol derivatives in the treatment of various fungal infections” (Eur J Med Chem, 2017)

Experiments:
[1] = system: Candida albicans; assay: Synergistic antifungal activity against Candida albicans ATCC 10231 assessed as fluconazole MIC measured after 48 hrs by checkboard based microplate reader analysis; assay type: functional
[2] = system: Candida albicans; assay: Antifungal activity against Candida albicans ATCC 64124 measured after 48 hrs by broth microdilution analysis; assay type: functional
[3] = system: Candida albicans; assay: Antifungal activity against Candida albicans ATCC 10231 measured after 48 hrs by broth microdilution analysis; assay type: functional
[4] = system: Candida albicans; assay: Synergistic antifungal activity against Candida albicans ATCC 10231 assessed as compound MIC measured after 48 hrs in presence of fluconazole by checkboard based microplate reader analysis; assay type: functional
[5] = system: Candida albicans; assay: Synergistic antifungal activity against Candida albicans ATCC 64124 assessed as compound MIC measured after 48 hrs in presence of posaconazole by checkboard based microplate reader analysis; assay type: functional
[6] = system: Candida albicans; assay: Synergistic antifungal activity against Candida albicans ATCC 10231 assessed as compound MIC measured after 48 hrs in presence of posaconazole by checkboard based microplate reader analysis; assay type: functional
[7] = system: Candida albicans; assay: Synergistic antifungal activity against Candida albicans ATCC 64124 assessed as compound MIC measured after 48 hrs in presence of ketoconazole by checkboard based microplate reader analysis; assay type: functional
[8] = system: Candida albicans; assay: Synergistic antifungal activity against Candida albicans ATCC 10231 assessed as compound MIC measured after 48 hrs in presence of ketoconazole by checkboard based microplate reader analysis; assay type: functional
[9] = system: Candida albicans; assay: Synergistic antifungal activity against Candida albicans ATCC 64124 assessed as compound MIC measured after 48 hrs in presence of itraconazole by checkboard based microplate reader analysis; assay type: functional
[10] = system: Candida albicans; assay: Synergistic antifungal activity against Candida albicans ATCC 10231 assessed as compound MIC measured after 48 hrs in presence of itraconazole by checkboard based microplate reader analysis; assay type: functional
[11] = system: Candida albicans; assay: Synergistic antifungal activity against Candida albicans ATCC 64124 assessed as compound MIC measured after 48 hrs in presence of fluconazole by checkboard based microplate reader analysis; assay type: functional
[12] = system: Candida albicans; assay: Antifungal activity against Candida albicans ATCC MYA-1237 measured after 48 hrs by broth microdilution analysis; assay type: functional
[13] = system: Nakaseomyces glabratus; assay: Antifungal activity against Candida glabrata ATCC 2001 measured after 48 hrs by broth microdilution analysis; assay type: functional
[14] = system: Candida albicans; assay: Synergistic antifungal activity against Candida albicans ATCC 10231 assessed as compound MIC measured after 48 hrs in presence of voriconazole by checkboard based microplate reader analysis; assay type: functional
[15] = system: Candida albicans; assay: Synergistic antifungal activity against Candida albicans ATCC 64124 assessed as compound MIC measured after 48 hrs in presence of voriconazole by checkboard based microplate reader analysis; assay type: functional
[16] = system: Candida albicans; assay: Additive antifungal activity against Candida albicans ATCC 10231 assessed as fractional inhibitory concentration index measured for 72 hrs in presence of fluconazole; assay type: functional
[17] = system: Candida albicans; assay: Additive antifungal activity against Candida albicans ATCC 64124 assessed as fractional inhibitory concentration index measured for 72 hrs in presence of fluconazole; assay type: functional
[18] = system: Candida albicans; assay: Additive antifungal activity against Candida albicans ATCC 10231 assessed as fractional inhibitory concentration index measured for 72 hrs in presence of itraconazole; assay type: functional
[19] = system: Candida albicans; assay: Additive antifungal activity against Candida albicans ATCC 64124 assessed as fractional inhibitory concentration index measured for 72 hrs in presence of itraconazole; assay type: functional
[20] = system: Candida albicans; assay: Partial synergistic antifungal activity against Candida albicans ATCC 64124 assessed as fractional inhibitory concentration index measured for 72 hrs in presence of voriconazole; assay type: functional
[21] = system: Candida albicans; assay: Partial synergistic antifungal activity against Candida albicans ATCC 10231 assessed as fractional inhibitory concentration index measured for 72 hrs in presence of ketoconazole; assay type: functional
[22] = system: Candida albicans; assay: Partial synergistic antifungal activity against Candida albicans ATCC 64124 assessed as fractional inhibitory concentration index measured for 72 hrs in presence of ketoconazole; assay type: functional
[23] = system: Candida albicans; assay: Antifungal activity against Candida albicans ATCC MYA-1003 measured after 48 hrs by broth microdilution analysis; assay type: functional
[24] = system: Candida albicans; assay: Antifungal activity against Candida albicans ATCC MYA-2310 measured after 48 hrs by broth microdilution analysis; assay type: functional
[25] = system: Candida albicans; assay: Antifungal activity against Candida albicans ATCC MYA-2876 measured after 48 hrs by broth microdilution analysis; assay type: functional
[26] = system: Candida albicans; assay: Antifungal activity against Candida albicans ATCC 90819 measured after 48 hrs by broth microdilution analysis; assay type: functional
[27] = system: Aspergillus terreus; assay: Antifungal activity against Aspergillus terreus ATCC MYA-3633 measured after 48 hrs by broth microdilution analysis; assay type: functional
[28] = system: Candida albicans; assay: Additive antifungal activity against Candida albicans ATCC MYA-1237 assessed as fractional inhibitory concentration index measured for 72 hrs in presence of posaconazole; assay type: functional
[29] = system: Candida albicans; assay: Additive antifungal activity against Candida albicans ATCC MYA-1237 assessed as fractional inhibitory concentration index measured for 72 hrs in presence of voriconazole; assay type: functional
[30] = system: Candida albicans; assay: Additive antifungal activity against Candida albicans ATCC MYA-2310 assessed as fractional inhibitory concentration index measured for 72 hrs in presence of posaconazole; assay type: functional
[31] = system: Candida albicans; assay: Additive antifungal activity against Candida albicans ATCC MYA-2310 assessed as fractional inhibitory concentration index measured for 72 hrs in presence of voriconazole; assay type: functional
[32] = system: Candida albicans; assay: Additive antifungal activity against Candida albicans ATCC MYA-2876 assessed as fractional inhibitory concentration index measured for 72 hrs in presence of posaconazole; assay type: functional
[33] = system: Candida albicans; assay: Additive antifungal activity against Candida albicans ATCC MYA-2876 assessed as fractional inhibitory concentration index measured for 72 hrs in presence of voriconazole; assay type: functional
[34] = system: Candida albicans; assay: Additive antifungal activity against Candida albicans ATCC 90819 assessed as fractional inhibitory concentration index measured for 72 hrs in presence of posaconazole; assay type: functional
[35] = system: Candida albicans; assay: Additive antifungal activity against Candida albicans ATCC 90819 assessed as fractional inhibitory concentration index measured for 72 hrs in presence of voriconazole; assay type: functional
[36] = system: Nakaseomyces glabratus; assay: Additive antifungal activity against Candida glabrata ATCC 2001 assessed as fractional inhibitory concentration index measured for 72 hrs in presence of posaconazole; assay type: functional
[37] = system: Nakaseomyces glabratus; assay: Additive antifungal activity against Candida glabrata ATCC 2001 assessed as fractional inhibitory concentration index measured for 72 hrs in presence of voriconazole; assay type: functional
[38] = system: Aspergillus terreus; assay: Additive antifungal activity against Aspergillus terreus ATCC MYA-3633 assessed as fractional inhibitory concentration index measured for 72 hrs in presence of voriconazole; assay type: functional
[39] = system: Nakaseomyces glabratus; assay: Synergistic antifungal activity against Candida glabrata ATCC 2001 assessed as fractional inhibitory concentration index measured for 72 hrs in presence of posaconazole; assay type: functional
[40] = system: Candida albicans; assay: Additive antifungal activity against Candida albicans MYA-1003 assessed as fractional inhibitory concentration index measured for 72 hrs in presence of voriconazole
[41] = system: Candida albicans; assay: Additive antifungal activity against Candida albicans ATCC 64124 assessed as fractional inhibitory concentration index measured for 72 hrs in presence of ketoconazole; assay type: functional
[42] = system: Candida albicans; assay: Partial synergistic antifungal activity against Candida albicans ATCC 10231 assessed as fractional inhibitory concentration index measured for 72 hrs in presence of posaconazole; assay type: functional
[43] = system: Candida albicans; assay: Synergistic antifungal activity against Candida albicans ATCC 64124 assessed as fractional inhibitory concentration index measured for 72 hrs in presence of posaconazole; assay type: functional
[44] = system: Candida albicans; assay: Partial synergistic antifungal activity against Candida albicans ATCC 10231 assessed as fractional inhibitory concentration index measured for 72 hrs in presence of voriconazole; assay type: functional
[45] = system: Aspergillus terreus; assay: Additive antifungal activity against Aspergillus terreus ATCC MYA-3633 assessed as fractional inhibitory concentration index measured for 72 hrs in presence of posaconazole; assay type: functional
[46] = system: Candida albicans; assay: Additive antifungal activity against Candida albicans MYA-1003 assessed as fractional inhibitory concentration index measured for 72 hrs in presence of posaconazole

Row | MIC [2] [mg/L] | MIC [3] [mg/L] | MIC [4] [mg/L] | MIC [5] [mg/L] | MIC [6] [mg/L] | MIC [7] [mg/L] | MIC [8] [mg/L] | MIC [9] [mg/L] | MIC [10] [mg/L] | MIC [11] [mg/L] | MIC [12] [mg/L] | MIC [13] [mg/L] | MIC [14] [mg/L] | MIC [15] [mg/L] | MIC [23] [mg/L] | Structure (SMILES) | fractional inhibitory concentration index (FICI) [16] | fractional inhibitory concentration index (FICI) [17] | fractional inhibitory concentration index (FICI) [18] | fractional inhibitory concentration index (FICI) [19] | fractional inhibitory concentration index (FICI) [20] | other results
1 | > 64 | > 64 | > 64 | 16 | 32 | 1 | 1 | > 64 | 64 | > 64 | > 64 | > 64 | 32 | 32 | > 64 | O=C(CCCN1CCC(O)(c2ccc(Br)cc2)CC1)c1ccc(Br)cc1 | 2 | 2 | 1.5 | 2 | 0.63 | MIC [1]: > 32 mg/L; fractional inhibitory concentration index (FICI) [21]: 0.52; fractional inhibitory concentration index (FICI) [22]: 0.52; MIC [24]: > 64 mg/L; MIC [25]: > 64 mg/L; MIC [26]: > 64 mg/L; MIC [27]: > 64 mg/L; fractional inhibitory concentration index (FICI) [28]: 2; fractional inhibitory concentration index (FICI) [29]: 2; fractional inhibitory concentration index (FICI) [30]: 2; fractional inhibitory concentration index (FICI) [31]: 2; fractional inhibitory concentration index (FICI) [32]: 2; fractional inhibitory concentration index (FICI) [33]: 2; fractional inhibitory concentration index (FICI) [34]: 2; fractional inhibitory concentration index (FICI) [35]: 2; fractional inhibitory concentration index (FICI) [36]: 0.38; fractional inhibitory concentration index (FICI) [37]: 2; fractional inhibitory concentration index (FICI) [38]: 2; fractional inhibitory concentration index (FICI) [39]: 0.38; fractional inhibitory concentration index (FICI) [40]: 2
2 | > 64 | > 64 | 64 | 8 | 16 | 32 | > 64 | > 64 | 64 | > 64 | > 64 | > 64 | 8 | 32 | > 64 | O=C(CCCN1CCC(O)(c2ccc(Br)cc2)CC1)c1ccccc1 | 2 | 2 | 1.5 | 2 | 0.75 | fractional inhibitory concentration index (FICI) [41]: 1; fractional inhibitory concentration index (FICI) [42]: 0.75; fractional inhibitory concentration index (FICI) [43]: 0.19; fractional inhibitory concentration index (FICI) [44]: 0.63; MIC [24]: > 64 mg/L; MIC [25]: > 64 mg/L; MIC [26]: > 64 mg/L; MIC [27]: > 64 mg/L; fractional inhibitory concentration index (FICI) [30]: 1.01; fractional inhibitory concentration index (FICI) [31]: 2; fractional inhibitory concentration index (FICI) [32]: 2; fractional inhibitory concentration index (FICI) [33]: 2; fractional inhibitory concentration index (FICI) [34]: 1; fractional inhibitory concentration index (FICI) [35]: 1; fractional inhibitory concentration index (FICI) [36]: 0.56; fractional inhibitory concentration index (FICI) [37]: 1.01; fractional inhibitory concentration index (FICI) [45]: 1.25; fractional inhibitory concentration index (FICI) [38]: 2; fractional inhibitory concentration index (FICI) [40]: 1.06; fractional inhibitory concentration index (FICI) [46]: 1.03
